PubChem BioAssay (NCI)
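These data come from cells grown in 96-well plates and exposed to compound for 48 hours at five concentrations. GI50 = concentration required for 50% inhibition of growth. TGI: concentration producing complete growth inhibition.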

Key:
Assay in all cases: NCI anticancer screen, dose series, 48 h
OVCAR-4 ovarian = test system: OVCAR-4 ovarian
786-0 renal = test system: 786-0 renal
SR leukemia = test system: SR leukemia
LOX IMVI melanoma = test system: LOX IMVI melanoma
OVCAR-5 ovarian = test system: OVCAR-5 ovarian
KM12 colon = test system: KM12 colon
NCI-H460 lung = test system: NCI-H460 lung
NCI-H226 lung = test system: NCI-H226 lung
COLO 205 colon = test system: COLO 205 colon
IGROV1 ovarian = test system: IGROV1 ovarian

Structure (SMILES): CS(=O)(=O)c1cc(=O)c2ccccc2s1
- TGI (OVCAR-4 ovarian): 7.8 µM
- TGI (786-0 renal): 13 µM
- TGI (SR leukemia): 8.09 µM
- TGI (LOX IMVI melanoma): 17.6 µM
- TGI (OVCAR-5 ovarian): 22.3 µM
- TGI (KM12 colon): 32.3 µM
- TGI (NCI-H460 lung): 41.2 µM
- TGI (NCI-H226 lung): 20.3 µM
- TGI (COLO 205 colon): 3.26 µM
- TGI (IGROV1 ovarian): 41.2 µM

Structure (SMILES): O=C(/C=C/c1c(O)ccc2ccccc12)c1ccccc1
- TGI (OVCAR-4 ovarian): > 100 µM
- TGI (786-0 renal): > 100 µM
- TGI (SR leukemia): > 100 µM
- TGI (LOX IMVI melanoma): 44.9 µM
- TGI (OVCAR-5 ovarian): > 100 µM
- TGI (KM12 colon): > 100 µM
- TGI (NCI-H460 lung): > 100 µM
- TGI (NCI-H226 lung): > 100 µM
- TGI (COLO 205 colon): > 100 µM
- TGI (IGROV1 ovarian): > 100 µM

Structure (SMILES): C/C=C(\C)CC/C=C/CO[Si](C)(C)C(C)(C)C
- TGI (OVCAR-4 ovarian): > 100 µM
- TGI (786-0 renal): > 100 µM
- TGI (SR leukemia): 56.3 µM
- TGI (LOX IMVI melanoma): 49.9 µM
- TGI (OVCAR-5 ovarian): > 100 µM
- TGI (KM12 colon): > 100 µM
- TGI (NCI-H460 lung): > 100 µM
- TGI (NCI-H226 lung): > 100 µM
- TGI (COLO 205 colon): > 100 µM
- TGI (IGROV1 ovarian): > 100 µM

Structure (SMILES): COC(=O)[C@H](Cc1c[nH]c2ccccc12)NC(=O)[C@@H](OC)[C@@H]1Cc2cc3cc(OC4CC(OC5CC(O)C(O)C(C)O5)C(O)C(C)O4)c(C)c(O)c3c(O)c2C(=O)[C@H]1OC1CC(OC2CC(OC3CC(C)(O)C(O)C(C)O3)C(O)C(C)O2)C(O)C(C)O1 (stereo not given in full)
- GI50 (OVCAR-4 ovarian): 0.0125 µM
- TGI (OVCAR-4 ovarian): > 16.5 µM
- GI50 (786-0 renal): 0.0158 µM
- TGI (786-0 renal): > 16.5 µM
- GI50 (SR leukemia): 0.00376 µM
- TGI (SR leukemia): > 8.99 µM
- GI50 (LOX IMVI melanoma): 0.00391 µM
- TGI (LOX IMVI melanoma): 0.0111 µM
- GI50 (OVCAR-5 ovarian): 0.0102 µM
- TGI (OVCAR-5 ovarian): > 16.5 µM
- GI50 (KM12 colon): 0.00558 µM
- TGI (KM12 colon): 1.05 µM
- GI50 (NCI-H460 lung): 0.00611 µM
- TGI (NCI-H460 lung): > 5.24 µM
- GI50 (NCI-H226 lung): 0.0065 µM
- TGI (NCI-H226 lung): 0.145 µM
- GI50 (COLO 205 colon): 0.00366 µM
- TGI (COLO 205 colon): 0.00882 µM
- GI50 (IGROV1 ovarian): 0.00743 µM
- TGI (IGROV1 ovarian): > 7.79 µM

Structure (SMILES): Cc1ccc(-c2cc(=O)c3cc(C)c(C)c(C(=O)O)c3o2)cc1C
- TGI (OVCAR-4 ovarian): > 100 µM
- TGI (786-0 renal): > 100 µM
- TGI (SR leukemia): > 100 µM
- TGI (LOX IMVI melanoma): > 100 µM
- TGI (OVCAR-5 ovarian): > 100 µM
- TGI (KM12 colon): > 100 µM
- TGI (NCI-H460 lung): > 100 µM
- TGI (NCI-H226 lung): > 100 µM
- TGI (COLO 205 colon): > 100 µM
- TGI (IGROV1 ovarian): > 100 µM

Structure (SMILES): c1cc2c(ncc3cscc32)s1
- TGI (OVCAR-4 ovarian): > 100 µM
- TGI (786-0 renal): > 100 µM
- TGI (SR leukemia): > 100 µM
- TGI (LOX IMVI melanoma): > 100 µM
- TGI (OVCAR-5 ovarian): > 100 µM
- TGI (KM12 colon): > 100 µM
- TGI (NCI-H460 lung): > 100 µM
- TGI (NCI-H226 lung): > 100 µM
- TGI (COLO 205 colon): > 100 µM
- TGI (IGROV1 ovarian): > 31.6 µM

Structure (SMILES): CCOC(=O)c1c(C)nc2c(c1N)/C(=C/c1ccc(OC)cc1)C(=O)N2Cc1ccc(F)cc1
- GI50 (OVCAR-4 ovarian): 0.392 µM
- TGI (OVCAR-4 ovarian): 6.25 µM
- GI50 (786-0 renal): 0.165 µM
- TGI (786-0 renal): 0.389 µM
- GI50 (SR leukemia): 0.0816 µM
- TGI (SR leukemia): 0.726 µM
- GI50 (LOX IMVI melanoma): 0.164 µM
- TGI (LOX IMVI melanoma): 0.34 µM
- GI50 (OVCAR-5 ovarian): 0.246 µM
- TGI (OVCAR-5 ovarian): 0.561 µM
- GI50 (KM12 colon): 0.243 µM
- TGI (KM12 colon): 0.844 µM
- GI50 (NCI-H460 lung): 0.257 µM
- TGI (NCI-H460 lung): 0.744 µM
- GI50 (NCI-H226 lung): 0.261 µM
- TGI (NCI-H226 lung): 1.03 µM
- GI50 (COLO 205 colon): 0.146 µM
- TGI (COLO 205 colon): 0.333 µM
- GI50 (IGROV1 ovarian): 0.235 µM
- TGI (IGROV1 ovarian): 0.733 µM

Structure (SMILES): CC[CH2][Sn]([Cl])([Cl])[CH2]CC.Oc1ccccc1C=NCCN=Cc1ccccc1O
- GI50 (OVCAR-4 ovarian): 8.21 µM
- TGI (OVCAR-4 ovarian): 21 µM
- GI50 (786-0 renal): 7.91 µM
- TGI (786-0 renal): 20.7 µM
- GI50 (SR leukemia): 5.45 µM
- TGI (SR leukemia): > 100 µM
- GI50 (LOX IMVI melanoma): 14.4 µM
- TGI (LOX IMVI melanoma): 28 µM
- GI50 (OVCAR-5 ovarian): 12.9 µM
- TGI (OVCAR-5 ovarian): 26 µM
- GI50 (KM12 colon): 12.7 µM
- TGI (KM12 colon): 25.9 µM
- GI50 (NCI-H460 lung): 15.6 µM
- TGI (NCI-H460 lung): 33 µM
- GI50 (NCI-H226 lung): 3.13 µM
- TGI (NCI-H226 lung): 12.6 µM
- GI50 (COLO 205 colon): 2.97 µM
- TGI (COLO 205 colon): 10.1 µM
- GI50 (IGROV1 ovarian): 5.98 µM
- TGI (IGROV1 ovarian): 27 µM
